In patent publication US6716829B2, “Aldosterone antagonist and cyclooxygenase-2 inhibitor combination therapy to prevent or treat inflammation-related cardiovascular disorders” (Pharmacia Corporation, priority 2000, dated 2004):
Several values for one entry are separate records, joined by “and”; a condition that tells them apart may be missing. Equal values may be shown once. Entries after “also recorded” stand apart in the source; their conditions may differ.

Test system: aldosterone + salt treated uninephrectomized rats
Experiment: Assay C, further aldosterone infusion study: radiotelemetrized arterial (systolic) blood pressure
Assay type: in vivo, Male Sprague-Dawley rats
Details: for Systolic Blood Pressure (mmHg): mean ± SEM of values every 5 min over 24-hour period
Protocol: Assay C: Further In Vivo Aldosterone Infusion Study
The procedure of Assay B was expanded upon in a further study. […] Myocardial tissue from animals in each treatment group was examined after 7, 14, or 30 days of treatment.
Male Sprague-Dawley rats, weighing 230 to 250 g, (Harlan Sprague-Dawley Industries, Indianapolis, IN) were housed in a room 12-hours light/12-hours dark daily cycle at an ambient temperature of 22±1° C. (n=96). Animals were allowed one week to adjust after arrival and had free access to TEKLAD 22/5 rodent diet (Harlan TEKLAD, Madison, Wis.) and tap water until the initiation of the experiment.
Potassium chloride supplementation was added to the saline solution in order to prevent the potential hypokalemia associated with aldosterone excess.
At the time of the surgery, an Alzet 2002 osmotic minipump (Alza Corp., Palo Alto, Calif.) containing either vehicle (9% ethanol/87% propylene glycol/4% dH2O) or 1.0 mg/mL d-aldosterone (Sigma Chemical, St. Louis, Mo.) was inserted subcutaneously at the nape of the neck. Aldosterone was administered at a dose of 0.75 µg/hour. […] Animals were sacrificed from each group (n=8-13) after 7, 14, or 30 days of treatment.
Animals to be sacrificed after 7 or 14 days of treatment were uninephrectomized and implanted with an Alzet minipump. Animals treated for 30 days were uninephrectomized, fitted for Alzet minipumps, and implanted with radio telemetry units (model #TA11PA-C40, Data Sciences Inc., St. Paul, Minn.) according to the following procedure. Animals were anesthetized with 5% isoflurane (SOLVAY Animal Health Inc., Mendota Heights, Minn.), which was delivered in O2 using a VMS anesthesia instrument (Matrix Medical, Inc., Orchard Park, N.Y.). Anesthesia was maintained with 1-2% isoflurane throughout the surgical procedure. The surgery site was clipped, scrubbed with nolvasan, and sprayed with betadine. A rostral-caudal incision was made through the skin from the base of the rib cage to the pubic region using a #11 scalpel blade. A second incision was made through the muscles of the abdominal wall to expose the peritoneal cavity. The […], renal artery and vein of the left kidney were isolated, tied off with 4-0 silk, and the kidney excised and discarded. Organs were carefully displaced with tissue retractors in order to expose the abdominal aorta. A 1.5 cm segment just rostral to the bifurcation of the abdominal aorta into the iliac arteries was cleared of excessive connective tissue and 4-0 silk was used to make an anchor adjacent to the aorta. A microvascular clip was then placed at both ends of the cleaned region to stop excessive blood flow. Using a bent, 21 gauge needle, the abdominal aorta was penetrated. The cannula of the radio telemetry unit was inserted and stabilized in the aorta using the 4-0 silk anchor. Organs were repositioned and the telemetry unit was placed over the organs. Using a non-interrupted suture pattern with 4-0 silk, the abdominal wall was closed, and the skin was subsequently closed using a 4-0 silk in an interrupted suture pattern. Animals were injected around the sutures with 100 μL of the anesthetic Marcaine HCl (Sanofi Winthrop Pharmaceuticals, New York, N.Y.) and given an injection (i.m.) of the antibiotic Mandol (Eli Lilly & Co., Indianapolis, Ind.). Post-operative care included monitoring the animals on a heating pad during recovery from anesthesia until sternal recumbency was reestablished. Animals were monitored daily for signs of distress and infection at the surgical site. Animals displaying continued discomfort after surgery were treated with 0.1-0.5 mg/kg, s.c. Buphrenorphine (Rickett & Colman Pharmaceuticals, Inc. Richmond, Va.). Animals were then placed on tap water and TEKLAD 22/5 rodent diet (Harlan TEKLAD, Madison, Wis.).
Radiotelemetrized arterial blood pressure was calculated with the […]

[1] = aldosterone + salt, uninephrectomized rats, up to 30 days, eplerenone 100 mg/kg/day

C[C@]12CCC(=O)C=C1CC[C@@H]1[C@@H]2[C@@H](O)C[C@]2(C=O)[C@@H](C(=O)CO)CC[C@@H]12 [Aldosterone]
Systolic Blood Pressure (Day 3, individual rats, 30-day protocol, listed as Aldosterone + salt): 116 mmHg and 152 mmHg and 115 mmHg and 127 mmHg and 143 mmHg and 122 mmHg and 124 mmHg and 159 mmHg | Systolic Blood Pressure (mmHg) (Day 3): 132 ± 6 mmHg | Systolic Blood Pressure (Day 4, individual rats, 30-day protocol, listed as Aldosterone + salt): 120 mmHg and 149 mmHg and 122 mmHg and 134 mmHg and 129 mmHg and 135 mmHg and 125 mmHg and 152 mmHg | Systolic Blood Pressure (mmHg) (Day 4): 133 ± 4 mmHg | Systolic Blood Pressure (Day 5, individual rats, 30-day protocol, listed as Aldosterone + salt): 126 mmHg and 158 mmHg and 124 mmHg and 142 mmHg and 129 mmHg and 137 mmHg and 128 mmHg and 151 mmHg | Systolic Blood Pressure (mmHg) (Day 5): 137 ± 4 mmHg | Systolic Blood Pressure (Day 6, individual rats, 30-day protocol, listed as Aldosterone + salt): 132 mmHg and 170 mmHg and 136 mmHg and 157 mmHg and 144 mmHg and 149 mmHg and 135 mmHg and 158 mmHg | Systolic Blood Pressure (mmHg) (Day 6): 148 ± 5 mmHg | Systolic Blood Pressure (Day 7, individual rats, 30-day protocol, listed as Aldosterone + salt): 140 mmHg and 179 mmHg and 139 mmHg and 165 mmHg (2×) and 153 mmHg and 154 mmHg and 145 mmHg | Systolic Blood Pressure (mmHg) (Day 7): 155 ± 5 mmHg | Systolic Blood Pressure (Day 8, individual rats, 30-day protocol, listed as Aldosterone + salt): 145 mmHg and 182 mmHg and 143 mmHg and 160 mmHg and 158 mmHg and 154 mmHg and 146 mmHg and 163 mmHg | Systolic Blood Pressure (mmHg) (Day 8): 156 ± 4 mmHg | Systolic Blood Pressure (Day 9, individual rats, 30-day protocol, listed as Aldosterone + salt): 150 mmHg and 191 mmHg and 148 mmHg and 172 mmHg (2×) and 159 mmHg and 151 mmHg and 169 mmHg | Systolic Blood Pressure (mmHg) (Day 9): 164 ± 5 mmHg | Systolic Blood Pressure (Day 10, individual rats, 30-day protocol, listed as Aldosterone + salt): 156 mmHg and 196 mmHg and 149 mmHg and 175 mmHg (2×) and 165 mmHg and 151 mmHg and 172 mmHg | Systolic Blood Pressure (mmHg) (Day 10): 168 ± 6 mmHg | Systolic Blood Pressure (Day 11, individual rats, 30-day protocol, listed as Aldosterone + salt): 154 mmHg and 201 mmHg and 155 mmHg (2×) and 178 mmHg and 181 mmHg and 163 mmHg and 175 mmHg | Systolic Blood Pressure (mmHg) (Day 11): 171 ± 6 mmHg | Systolic Blood Pressure (Day 12, individual rats, 30-day protocol, listed as Aldosterone + salt): 159 mmHg and 207 mmHg and 161 mmHg and 190 mmHg (2×) and 186 mmHg and 170 mmHg and 163 mmHg | Systolic Blood Pressure (mmHg) (Day 12): 178 ± 6 mmHg | Systolic Blood Pressure (Day 13, individual rats, 30-day protocol, listed as Aldosterone + salt): 161 mmHg and 210 mmHg and 166 mmHg (2×) and 196 mmHg and 191 mmHg and 172 mmHg and 194 mmHg | Systolic Blood Pressure (mmHg) (Day 13): 182 ± 6 mmHg | Systolic Blood Pressure (Day 14, individual rats, 30-day protocol, listed as Aldosterone + salt): 164 mmHg and 208 mmHg and 170 mmHg and 204 mmHg and 192 mmHg (2×) and 181 mmHg and 159 mmHg and 172 mmHg | Systolic Blood Pressure (mmHg) (Day 14): 182 ± 6 mmHg | Systolic Blood Pressure (Day 15, individual rats, 30-day protocol, listed as Aldosterone + salt): 171 mmHg | Systolic Blood Pressure (mmHg) (Day 15): 181 ± 5 mmHg | Systolic Blood Pressure (mmHg) (Day 16): 187 ± 6 mmHg | Systolic Blood Pressure (mmHg) (Day 17): 195 ± 7 mmHg | Systolic Blood Pressure (mmHg) (Day 18): 196 ± 6 mmHg | Systolic Blood Pressure (mmHg) (Day 19): 200 ± 6 mmHg | Systolic Blood Pressure (mmHg) (Day 20): 203 ± 5 mmHg | Systolic Blood Pressure (mmHg) (Day 21): 208 ± 4 mmHg | Systolic Blood Pressure (mmHg) (Day 22): 209 ± 4 mmHg | Systolic Blood Pressure (mmHg) (Day 23): 208 ± 4 mmHg | Systolic Blood Pressure (mmHg) (Day 24): 210 ± 3 mmHg | Systolic Blood Pressure (mmHg) (Day 25): 210 ± 4 mmHg | Systolic Blood Pressure (mmHg) (Day 26): 210 ± 3 mmHg | Systolic Blood Pressure [1]: induced severe hypertension; also recorded: progressive increase in blood pressure with time

COC(=O)[C@@H]1CC2=CC(=O)CC[C@]2(C)[C@@]23O[C@@H]2C[C@@]2(C)[C@@H](CC[C@@]24CCC(=O)O4)[C@H]13 [Eplerenone]
Systolic Blood Pressure (Day 3, individual rats, 30-day protocol, listed as Eplerenone + aldosterone + salt): 123 mmHg and 126 mmHg (2×) and 130 mmHg (2×) and 128 mmHg and 119 mmHg and 125 mmHg (2×) | Systolic Blood Pressure (mmHg) (Day 3): 126 ± 1 mmHg | Systolic Blood Pressure (Day 4, individual rats, 30-day protocol, listed as Eplerenone + aldosterone + salt): 130 mmHg (2×) and 128 mmHg (2×) and 131 mmHg and 139 mmHg and 122 mmHg and 126 mmHg and 134 mmHg | Systolic Blood Pressure (mmHg) (Day 4): 130 ± 2 mmHg | Systolic Blood Pressure (Day 5, individual rats, 30-day protocol, listed as Eplerenone + aldosterone + salt): 132 mmHg (2×) and 134 mmHg and 143 mmHg and 123 mmHg and 127 mmHg (2×) and 133 mmHg and 142 mmHg | Systolic Blood Pressure (mmHg) (Day 5): 132 ± 2 mmHg | Systolic Blood Pressure (Day 6, individual rats, 30-day protocol, listed as Eplerenone + aldosterone + salt): 133 mmHg (2×) and 142 mmHg and 136 mmHg and 152 mmHg and 126 mmHg and 137 mmHg and 140 mmHg and 150 mmHg | Systolic Blood Pressure (mmHg) (Day 6): 139 ± 3 mmHg | Systolic Blood Pressure (Day 7, individual rats, 30-day protocol, listed as Eplerenone + aldosterone + salt): 140 mmHg (3×) and 142 mmHg and 143 mmHg and 156 mmHg (2×) and 132 mmHg and 141 mmHg | Systolic Blood Pressure (mmHg) (Day 7): 143 ± 3 mmHg | Systolic Blood Pressure (Day 8, individual rats, 30-day protocol, listed as Eplerenone + aldosterone + salt): 142 mmHg and 146 mmHg and 141 mmHg and 156 mmHg and 131 mmHg and 138 mmHg (2×) and 139 mmHg and 152 mmHg | Systolic Blood Pressure (mmHg) (Day 8): 142 ± 3 mmHg | Systolic Blood Pressure (Day 9, individual rats, 30-day protocol, listed as Eplerenone + aldosterone + salt): 142 mmHg and 146 mmHg and 139 mmHg and 154 mmHg and 130 mmHg and 133 mmHg and 137 mmHg and 141 mmHg and 151 mmHg | Systolic Blood Pressure (mmHg) (Day 9): 142 ± 3 mmHg | Systolic Blood Pressure (Day 10, individual rats, 30-day protocol, listed as Eplerenone + aldosterone + salt): 143 mmHg (2×) and 138 mmHg and 158 mmHg and 134 mmHg and 136 mmHg and 139 mmHg and 142 mmHg and 149 mmHg | Systolic Blood Pressure (mmHg) (Day 10): 142 ± 2 mmHg | Systolic Blood Pressure (Day 11, individual rats, 30-day protocol, listed as Eplerenone + aldosterone + salt): 145 mmHg (2×) and 139 mmHg and 138 mmHg and 160 mmHg and 136 mmHg and 137 mmHg and 140 mmHg and 152 mmHg | Systolic Blood Pressure (mmHg) (Day 11): 143 ± 3 mmHg | Systolic Blood Pressure (Day 12, individual rats, 30-day protocol, listed as Eplerenone + aldosterone + salt): 147 mmHg and 140 mmHg (2×) and 139 mmHg (2×) and 165 mmHg and 137 mmHg and 148 mmHg and 154 mmHg | Systolic Blood Pressure (mmHg) (Day 12): 145 ± 3 mmHg | Systolic Blood Pressure (Day 13, individual rats, 30-day protocol, listed as Eplerenone + aldosterone + salt): 148 mmHg and 144 mmHg and 137 mmHg and 170 mmHg and 140 mmHg (3×) and 149 mmHg | Systolic Blood Pressure (mmHg) (Day 13): 147 ± 3 mmHg | Systolic Blood Pressure (mmHg) (Day 14): 150 ± 4 mmHg | Systolic Blood Pressure (mmHg) (Day 15): 148 ± 4 mmHg | Systolic Blood Pressure (mmHg) (Day 16): 150 ± 4 mmHg | Systolic Blood Pressure (mmHg) (Day 17): 154 ± 5 mmHg | Systolic Blood Pressure (mmHg) (Day 18): 157 ± 5 mmHg | Systolic Blood Pressure (mmHg) (Day 19): 160 ± 5 mmHg | Systolic Blood Pressure (mmHg) (Day 20): 160 ± 5 mmHg | Systolic Blood Pressure (mmHg) (Day 21): 165 ± 6 mmHg | Systolic Blood Pressure (mmHg) (Day 22): 167 ± 6 mmHg | Systolic Blood Pressure (mmHg) (Day 23): 172 ± 6 mmHg | Systolic Blood Pressure (mmHg) (Day 25): 176 ± 6 mmHg | Systolic Blood Pressure (mmHg) (Day 26): 180 ± 7 mmHg | Systolic Blood Pressure [1]: significantly reduced at days 8-30
